Experimental data as given in article PMC8536644, “Enigmatic mechanism of the N-vinylpyrrolidone hepatocarcinogenicity in the rat” (Archives of Toxicology, 2021).

What was measured:
[1] = test system: polychromatic erythrocytes of rat bone marrow; test: Micronucleus test in rat bone marrow (OECD 474); conditions: for MN/ 1000 PCE Mean ± SD / MN/ 1000 PCE Range / PCE/1000 Erythrozyten Mean ± SD / PCE/NCE quotient (%): 200 mg/kg body weight oral
Protocol: 13-mm filter disks with a pore size of 8 µm were placed on the bottom of 5-mL plastic syringes. Approximately 500 mg of a mixture consisting of equal parts microcrystalline cellulose (Sigmacell®, Typ 50) and alpha-cellulose fibers was added up to the 2-mL mark.
Bone marrow preparation was performed according to published methods (Romagna and Staniforth [1989]; Salamone et al. [1980]). The soft tissue was removed from the femora and the epiphyses were cut off. The bone marrow was rinsed off the diaphyses with approximately 3 mL 37 °C-warm fetal calf serum (FCS) (Biochrom, Berlin, Germany) per femur, placed on the above-described cellulose column and eluted with 3 mL of Hank's Balanced Salt Solution (HBSS) (Biochrom, Berlin, Germany) (with Ca^2+ und Mg^2+). The eluate was centrifuged at 300 g for 5 min and the pellet was suspended in […] FCS. From this suspension three portions per femur were individually placed on slides, air-dried and then stained for 4 min in May-Grunwald solution 1 (Merck, Darmstadt, Germany), followed by 4 min in May–Grunwald solution 2 (May-Grunwald solution 1 diluted 1:1 with aqua bidest.), rinsed in aqua bidest and then stained with Giemsa solution (7.5% dilution derived from Giemsa obtained from Merck, Darmstadt, Germany) for 15 min. Subsequently, the slides were washed twice with aqua bidest, then dried, cleared in xylene and covered with Corbit-Balsam (I. Hecht, Kiel-Hasse, Germany).
2000 polychromatic erythrocytes (PCE) per animal (1000 per slide) were evaluated at 1000-fold magnification under immersion oil for the presence/absence of large and small micronuclei as well as the proportion of PCE among the total erythrocytes. Statistical significance of differences between treated versus untreated groups was evaluated by the one-sided Wilcoxon test (using the program MUKERN). The result is regarded as positive when the following criteria are fulfilled: 1.
2000 PCEs were analyzed for micronuclei per animal.

[2] = Trypan Blue viability of the single cell suspension, liver; type: in vivo, rat; conditions: Wistar, rat, in vivo, po, 200 mg/kg
Protocol: (§1) The organ parts (see above) were washed in mincing buffer (50 mM EDTA in HBSS [without Ca^2+ and Mg^2+] pH 7.5: DMSO 9:1 (v/v), the latter added shortly before use, stored at 4 °C), cut into 1 to 2-mm pieces in ice-cold mincing buffer and transferred to a cell sieve with 70-µm pores. The viability of the cell suspension was evaluated by the Trypan Blue Assay (Strober [2001]).

[3] = test system: rat liver cells; test: as above; type: in vivo; conditions: Wistar, rat, in vivo, po, 200 mg/kg, 24 h
Protocol: as §1

CCOS(C)(=O)=O [EMS, ethyl methanesulfonate, reference compound]
MN/ 1000 PCE Mean ± SD ([1]; female): 11.8 ± 12.3 MN/ 1000 PCE | MN/ 1000 PCE Range ([1]; female): 9.0–14.5 MN/ 1000 PCE | PCE/1000 Erythrozyten Mean ± SD ([1]; female): 563 ± 29 PCE/1000 Erythrozyten | PCE/NCE quotient (%) ([1]; female): 89% | MN/ 1000 PCE Mean ± SD ([1]; male): 14.5 ± 6.0 MN/ 1000 PCE | MN/ 1000 PCE Range ([1]; male): 3.0–20.0 MN/ 1000 PCE | PCE/1000 Erythrozyten Mean ± SD ([1]; male): 616 ± 50 PCE/1000 Erythrozyten | PCE/NCE quotient (%) ([1]; male): 101% | Micronuclei in PCE ([1]; 200 mg/kg body weight, independent of gender): 13.2 ± 4.6 ‰ | Micronuclei in PCE ([1]; female, Wistar Crl:WI (Han), rat, in vivo, 24 h): 11.8 ± 2.3 ‰ | Micronuclei in PCE ([1]; male, Wistar Crl:WI (Han), rat, in vivo, 24 h): 14.5 ± 6.0 ‰ | viability at 24 h ([2]; female, Individual viability (%)): 99% | viability at 24 h ([2]; female, Viability (%) (mean ± SD)): 96 ± 2% | viability at 24 h ([2]; male, Individual viability (%)): 91% | viability at 24 h ([2]; male, Viability (%) (mean ± SD)): 95 ± 3% | Individual viability (%) ([3]; female): 97% | Individual viability (%) ([3]; male): 94%
